Assays:
[1] = Pre-clinical large animal lung transplant safety model (EVLP 6 h, left lung transplant, 4 h reperfusion); format: in vivo, Yorkshire male domestic pigs; conditions: PDT MB 1 umol/L + red light vs control and UVC
Experimental: In order to translate such approach to the clinical EVLP setting, the safety of applying UVC and PDT during EVLP was assessed using a pre-clinical large animal transplant model (FIG. 15D).
In this model, Yorkshire male domestic pigs (30-35 kg) were used, under anesthesia and mechanic ventilation. After lung withdrawal, lungs were preserved for 2 hours at 4° C., followed by EVLP for 6 hours. During EVLP, pig lungs were randomized for three groups (n=4, each): (1) Control (standard EVLP technique); (2) Ultra Violet C; (3) Photodynamic Therapy (PDT), using Methylene Blue (MB) diluted in the perfusion solution (1 umol/L) associated with red light irradiation. During EVLP, lung physiology was assessed (pulmonary vascular resistance, pulmonary artery pressure, left atrium (venous) pressure, peak airway pressure, plateau pressure, dynamic compliance, static compliance and gas exchange function-PO2); There was no difference in ex vivo lung function during 6 hours amongst the groups. After EVLP, the left lung was transplanted followed by 4 hours of reperfusion. Post-transplant blood gas samples were collected of the transplanted graft upper and lower pulmonary veins and the average of the partial pressure of arterial oxygen (PaO2)/fraction of inspired oxygen (FiO2) was calculated.

[2] = tested on: HCV; assay: EVLP of HCV+ human donor lungs with light therapy, viral load by RealTime PCR
Experimental: (§1) Human Lung Studies: effect of EVLP and light therapies into HCV titers: In order to evaluate the effect of EVLP itself and also as a platform for light-based therapies against HCV titers in the lung tissue and perfusate solution, 9 rejected human lungs from NAT+ HCV donors. Donor lungs were recovered using standard protocols and flushed with cold Low-Potassium Dextran (LPD) solution and preserved at 4° C. as routine clinical practice. Following the pre-EVLP flush, the lungs were placed in 2 independent EVLP circuits for 9 hours. One lung was the control group (standard EVLP protocol, (n=9), whereas the other lung was randomly subjected to different treatment conditions (n=3, each) (FIG. 13A): (1) Intense lung wash (replacement of perfusate solution and circuit after 3 h of EVLP); (2) Ultra Violet C (UVC) light (260 nm, 4 W) applied to EVLP perfusate; (3) Photodynamic Therapy (PDT), using Methylene Blue (MB) diluted in the perfusion solution (1 umol/L) associated with red light irradiation (630 nm, 20 mW/cm^2). The advantage of such design is that both control and treated lungs come from the same donor (same virus load as baseline). Tissue biopsies were collected from lower, and upper lobes of the lungs at baseline and every 3 h during perfusion and perfusate samples were collected hourly. All samples were assessed for viral load quantification using RealTime PCR assay. The results were normalized for percentage of viral load decrease. To translate the application of light therapies to an EVLP system, a specific device suitable to be inserted inline in the EVLP circuit where different light wavelengths could be applied to treat the perfusion solution.

[3] = Ex vivo lung function during 9 hours of EVLP of human donor lungs; conditions: PDT (MB 1 umol/L + red light) applied to circuit, 9 hours EVLP
Experimental: as §1, with “The results were normalized for percentage of viral load decrease. To translate the application of light therapies to an EVLP system, a specific device suitable to be inserted inline in the EVLP circuit where different light wavelengths could be applied to treat the perfusion solution.” left out

[4] = tested on: HCV JFH-1 strain; assay: Mini-EVLP circuit spiked with HCV JFH-1, infectivity loss in Huh 7.5.1 hepatocyte culture
[5] = tested on: Staphylococcus aureus, Stenotrophomonas maltophilia, and Pseudomonas aeruginosa; conditions: antibiotic 333 mg/L, LB Agar plates, UVC group 0
Experimental: Methods: A mixture of low-potassium-dextran lung perfusion solution and Lysogeny Broth (LB) media was spiked with 1,0×10^5 CFU/mL of Staphylococcus aureus, Stenotrophomonas maltophilia, and Pseudomonas aeruginosa. A mini EVLP and UVC irradiator was used (FIG. 7). After priming, the circuits were divided into three groups (n=4, each) and evaluated for 180 minutes: 1) Control (no treatment); 2) UVC (236 nm, 9 J/cm^2) and 3) Antibiotic (Imipenem/Cilastatin, 333 mg/L). Samples were taken at different timepoints and analysed, using LB Agar culture plates and bacterial DNA qPCR assay.

| Compound | post-transplant PaO2/FiO2 after 4 h of reperfusion, among the groups ([1]; pig left lung transplant) | ex vivo lung function during 6 hours EVLP amongst the groups ([1]; pig lungs) | decrease of HCV titers in human donor lungs ([2]; PDT using MB as photosensitizer, summary statement) | HCV titers in lung tissue, % reduction ([2]; PDT: methylene blue 1 umol/L + red light 630 nm, 20 mW/cm^2, 9 h EVLP, lung tissue, control 75.46%) | perfusate HCV titres (% reduction from baseline) ([2]; PDT: methylene blue 1 umol/L + red light 630 nm/20 mW/cm^2, 9 h EVLP, perfusate, control 69.49%) | ex vivo lung function during EVLP (delta P/F ratio, peak airway pressure, dynamic compliance) vs control lung [3] | perfusion time after which no infectivity was observed ([4]; PDT group, red light 630 nm, 20 mW/cm^2, JFH-1 1.5×10^6 copies/mL, 37° C.) | effect on HCV infectivity with ambient (room) light activation compared with red light ([4]; regular room light instead of red light) | bacterial growth after 180 minutes of treatment [5] |
| --- | --- | --- | --- | --- | --- | --- | --- | --- | --- |
| CN(C)c1ccc2nc3ccc(=[N+](C)C)cc-3sc2c1 [Methylene blue] | no significant difference | no difference | 98% | 90.96% | 97.87% | no significant difference | 15 min | weaker than with red light | – |
| Imipenem/Cilastatin | – | – | – | – | – | – | – | – | 15±2.3 colonies/plate |
